From patent US20240043514A1, “NOVEL METHOD FOR PRODUCING ANTIBODIES” (TSINGHUA UNIVERSITY, priority 2017, published 2024)

How the values were obtained:
PBMCs = assay: In vitro immunization (IVI) of PBMCs, antigen-specific IgG/IgM production by ELISA; type: cell-based, human; conditions: 500 nM synthesized TLR7/8 agonist
Experimental: PBMCs were washed and diluted with PIV culture medium. Cell density was adjusted to 1*10^^7 cells/ml, treateder with 0.25 mM LLME for about 20 min. Discarded supernatant, and re-suspended cell with PIV culture medium. Adjusted cell density to 9*10^^5 cells/ml. […] Cultured the tissue for 7 days at 37° C., 5% CO2. Changed half of the medium and added factor cocktail on day 7. Cultured the cells for 7-21 days at 37° C., 5% CO2. Collected the supernatant on day 7, day 14, or day 21 for analysis of antibody production by ELISA, whereas the pellets are used for testing gene expression by PCR or RT-PCR. The collected cells were also tested in ELISpot assay for FACS analysis.
Exemplary IVI steps with addition of stimulate factors: • 1. Prepared PBMCs and treat them with LLME. • 2. […] Collected the cells and plate them into 96-well plate at a density of 6*10^4/well. • 4. […] The IgG and IgM level was examined with ELISA assay.
After day7 or day14 with addition of cytokines or antibody-enhancing composition and antigens, supernatants were harvested and added to antigen OVA-coated plates. After 2 hr incubation, a HRP-conjugated anti-human IgG or anti-human IgM was added, the amount of antigen-specific antibody was measured using TMB as substrate. The data represents the mean of 2 replicates; error bars represent SD. One representative data of 3 separate experiments is shown.
Plates were coated with antigen at 5 μg/ml overnight at 4° C. and washed them in PBST (containing 0.5% Tween-20). The plates were blocked with 5% BSA before addition of cell culture supernatants and horseradish peroxidase (HRP)-conjugated detection antibodies (dilutions: 1 in 2,500 for HRP-conjugated IgG-specific antibody (Jackson) and HRP-conjugated IgM-specific antibody. TMB substrates solution was used for measurement. […]
To further test effects of other cytokine or molecules on antibody production, a synthesized TLR7/8 agonist (50 nM and 500 nM) was added to the IVI system in the presence of antigen OVA (2 μg/ml).
An exemplary cytokine, IL1β, was tested. PBMCs were incubated in vitro with OVA, basic, and either some of the known stimulating factors ICOS, CD40L, TLR7/8 agonists or IL1β (in different doses) (1.5*10^^5 cell/well, 96 well plate). After 7 or 14 days, supernatants were harvested, and IgG/IgM antibody production was measured by ELISA assay.

TLR9 = molecular target: T1, TLR9 (Homo sapiens, UniProt Q9NR96); assay: Inhibition of CpG2006 (TLR9 agonist) by E6446; type: cell-based; conditions: data not shown
T1 sequence (Q9NR96 26-1032): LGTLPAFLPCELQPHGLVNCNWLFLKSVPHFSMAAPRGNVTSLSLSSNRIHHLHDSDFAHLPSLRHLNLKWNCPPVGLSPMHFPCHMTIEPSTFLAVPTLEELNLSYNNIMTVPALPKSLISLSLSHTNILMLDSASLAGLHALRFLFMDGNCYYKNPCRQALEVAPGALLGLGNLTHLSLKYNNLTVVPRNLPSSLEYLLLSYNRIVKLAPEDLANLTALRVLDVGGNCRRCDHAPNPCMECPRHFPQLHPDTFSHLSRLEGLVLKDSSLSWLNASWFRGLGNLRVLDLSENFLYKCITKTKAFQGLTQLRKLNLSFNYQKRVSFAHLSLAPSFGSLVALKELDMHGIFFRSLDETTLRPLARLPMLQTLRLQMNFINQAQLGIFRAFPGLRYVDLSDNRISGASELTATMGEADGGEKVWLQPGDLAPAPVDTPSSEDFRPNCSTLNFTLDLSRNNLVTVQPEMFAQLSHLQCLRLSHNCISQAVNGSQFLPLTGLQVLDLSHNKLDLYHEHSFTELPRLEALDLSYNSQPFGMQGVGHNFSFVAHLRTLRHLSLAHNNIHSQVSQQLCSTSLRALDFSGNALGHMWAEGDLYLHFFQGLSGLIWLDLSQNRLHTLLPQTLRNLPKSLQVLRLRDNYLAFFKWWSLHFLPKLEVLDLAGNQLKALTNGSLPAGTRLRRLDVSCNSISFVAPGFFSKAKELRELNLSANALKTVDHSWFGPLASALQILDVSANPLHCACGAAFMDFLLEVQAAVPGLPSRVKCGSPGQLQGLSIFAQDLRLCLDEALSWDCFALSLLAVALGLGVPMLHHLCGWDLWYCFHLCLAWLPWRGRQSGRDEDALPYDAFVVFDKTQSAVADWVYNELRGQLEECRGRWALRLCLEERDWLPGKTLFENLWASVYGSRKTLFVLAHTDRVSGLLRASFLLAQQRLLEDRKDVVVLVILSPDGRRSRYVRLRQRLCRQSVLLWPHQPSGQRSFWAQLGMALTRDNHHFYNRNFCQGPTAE
Experimental: (§1) E6446 dihydrochloride (E6446-HCL), a synthetic nucleic acid-sensing TLRs antagonist. It's IC50 for CpG2006 (TLR9 agonist) was in the range of 0.01-0.03 uM (data not shown). But it required 2-8 uM (a 100-fold higher concentration) to inhibit the effect of R848 (TLR7/8 agonist) (data not shown).

TLR7/8 = assay: Inhibition of the effect of R848 (TLR7/8 agonist) by E6446; type: cell-based
Experimental: as §1

[1] = tested on: Follicular dendritic cells (FDCs); assay: Flow cytometry of follicular dendritic cells (CD3-CD19-CD21+/CD35+) in PBMCs; type: cell-based, human; conditions: high concentration of E6446 (10 uM), with TLR7/8 agonist
Experimental: FIGS. 12A-12G show the interactive effects between synthesized TLR7/8 agonist and TLR9 antagonist in stimulating anti-OVA antibody production in PBMCs. At low concentrations (0.02-0.2 uM), the E6446 enhanced the effect of synthesized TLR7/8, whereas at a high concentration (10 uM), E6446 inhibited this effect. Enzyme-linked immunosorbent assay (ELISA) analysis of OVA-specific antibodies of IgG (FIGS. 12A and 12D) and IgM (FIGS. 12B and 12E) responses were performed 7 days or 14 days after stimulant incubation. Cell proliferation (FIGS. 12C and 12F) was assayed by CellTiter-glo kit. Cells were harvested and tested by Flow cytometry (G). Follicular dendritic cells (FDCs) cells were gated as CD3^−CD19^−CD21^+/CD35^+ cells. Note. CD35 and CD21 are dendritic cell (DC) markers which may represent two subpopulations of DCs. The CD21-sub-type is inhibited by high concentration of E6446. […] The data represented the mean of 3 replicates; error bars represented SD. […]

IC50 (TLR9): 10 to 30 nM
concentration to inhibit R848 relative to IC50 for CpG2006 (TLR7/8; TLR7/8 versus TLR9): 100 fold
Structure (SMILES): Cl.Cl.c1cc(-c2nc3ccc(OCCCN4CCCC4)cc3o2)ccc1OCCCN1CCCC1 [E6446 dihydrochloride]
effect of low concentration E6446 on IgG production with TLR7/8 agonist (PBMCs; E6446 0.02 uM and 0.2 uM, 14-day cultures, OVA+IL2+IL21): promotes the effects of TLR7/8 agonist on antibody IgG production
effect of high concentration E6446 on IgG and IgM production with TLR7/8 agonist (PBMCs; E6446 10 uM, 7-day and 14-day cultures): reverses the effects of TLR7/8 agonist
concentration required to inhibit the effect of R848 (TLR7/8 agonist) (TLR7/8; data not shown): 2 to 8 µM
CD21-sub-type of dendritic cells [1]: inhibited
